One assay relates to Fallopia convolvulus. Nature of the assay: Herbicidal action on FALCO, visual scoring vs untreated, post-emergence 2-4 leaf stage. It counts as in vivo. The procedure:
(§1) The examples given below were performed in the greenhouse and, in some cases, in field trials.
(§2) The herbicides, or combinations, were applied in cereals after the weeds had emerged naturally using plot sprayers. After application, the results, such as damage to the crop plants and effect on broad-leaved weeds/grass weeds were assessed by means of visual scoring. The herbicidal action was assessed qualitatively and quantitatively by comparing untreated and treated plots on the basis of the effect on plant growth and the development of chloroses and necroses down to the complete destruction of the weeds (0–100%). The application was effected when the crop plants and weeds were in the 2–4 leaf stage. The test was evaluated approximately 4 weeks after application.
(§3) In the greenhouse experiments, the crop plants and broadleaved weeds/grass weeds were grown in No. 13 pots and treated in the 2–4 leaf stage. The pots were subsequently placed in the greenhouse under good growth conditions (temperature, atmospheric humidity, water supply).
(§4) The assessments were carried out similarly to those in the field trials, i.e. visual scoring of the treated plants in comparison with untreated control variants. These assessments were carried out 3 weeks after applying the test preparations and their combinations. The experiments had been set up in two replications.
(§5) To assess the combination effects, the activities of the individual components were added and compared with the activity of the mixtures in equal doses. It was frequently observed that the efficacies of the combinations exceeded the total of the individual activities.
(§6) In cases with less clear effects, the expected value was calculated using Colby's formula and compared with the empirically determined result. The calculated efficacy of a combination which is expected in theory is determined is using S.R. Colby's formula: “Calculation of synergistic and antagonistic responses of herbicide combinations”, Weeds 15 (1967), pages 20 to 22.
(§7) [formula] where • X=% damage caused by herbicide A at a rate of ×kg a.i./ha; • Y=% damage caused by herbicide B at a rate of y kg a.i./ha; • Z=% damage caused by a further herbicide C at a rate of z kg a.i./ha; • E=expected value, i.e. expected damage caused by herbicides A+B (or A+B+C) at x+y (or x+y+z) kg a.i./ha.
(§8) Synergistic effects were assumed to be when the empirical value exceeded the expected value. In the case of combinations with individual components with the same active substances, comparisons via the total formula were also possible.

A further assay deals with Echinochloa crus galli. Nature of the assay: Herbicidal action on ECHCR, visual scoring vs untreated, post-emergence 2-4 leaf stage. It counts as in vivo. The procedure:
as §1, §2, §3, §4, §5, §6, §7, §8

`COC(=O)c1ccc(I)cc1S(=O)(=O)NC(=O)Nc1nc(C)nc(OC)n1.[Na]` [A), sodium salt of methyl 4-iodo-2-[3-(4-methoxy-6-methyl-1,3,5-triazin-2-yl)ureidosulfonyl]benzoate]: the FALCO % control was determined as 73% in the assay with Fallopia convolvulus (Table 5, 2.5 g of a.i./ha); 85% in the assay with Fallopia convolvulus (Table 5, 5 g of a.i./ha); 88% with Fallopia convolvulus (Table 5, 10 g of a.i./ha); 97% in the assay on Fallopia convolvulus (Table 5, 20 g of a.i./ha); 98% in the assay with Fallopia convolvulus (Table 5, 40 g of a.i./ha); 99% in the assay on Fallopia convolvulus (Table 5, 80 g of a.i./ha). Moreover, the FALCO % control in the assay on Fallopia convolvulus (Table 5, 160 g of a.i./ha) turned out to be 99%; in the assay with Fallopia convolvulus (Table 9, 2.5 g of a.i./ha), 73%; in the assay on Fallopia convolvulus (Table 9, 5 g of a.i./ha), 85%; with Fallopia convolvulus (Table 9, 10 g of a.i./ha) it was 88%; in the assay with Fallopia convolvulus (Table 9, 20 g of a.i./ha) it was 97%; in the assay on Fallopia convolvulus (Table 9, 40 g of a.i./ha) it was 98%. In addition, the ECHCR % control is 65% in the assay with Echinochloa crus galli (Table 4, 10 g of a.i./ha); 75% with Echinochloa crus galli (Table 4, 20 g of a.i./ha); 80% in the assay with Echinochloa crus galli (Table 4, 40 g of a.i./ha); 88% in the assay with Echinochloa crus galli (Table 4, 80 g of a.i./ha); 65% in the assay with Echinochloa crus galli (Table 8, 10 g of a.i./ha); 73% in the assay on Echinochloa crus galli (Table 8, 20 g of a.i./ha). Besides, the ECHCR % control is 80% in the assay with Echinochloa crus galli (Table 8, 40 g of a.i./ha) and 88% in the assay with Echinochloa crus galli (Table 8, 80 g of a.i./ha).
